Measurements: patent US20230212142A9, “Substituted 5-Cyclopropyl-1H-pyrazole-3-yl-amine Derivatives as Selective CDK12/13 Inhibitors” (Aurigene Discovery Technologies Limited, priority 2019, published 2023)
pIC50, pKd: −log10 of the molar value.

What was measured:
[1] = target: CDK12 (Homo sapiens, UniProt Q9NYV4); experiment: Biochemical assay for CDK12 (kinase-tagged phage / qPCR competition binding); set-up: host or cells: E. coli BL21-derived host (T7 phage display) or HEK-293
Method: Kinase-tagged T7 phage strains were grown in parallel in 24-well blocks in an E. coli host derived from the BL21 strain. E. coli were grown to log-phase and infected with T7 phage from a frozen stock (multiplicity of infection=0.4) and incubated with shaking at 32° C. until lysis (90-150 minutes). The lysates were centrifuged (6,000×g) and filtered (0.2 μm) to remove cell debris. The remaining kinases were produced in HEK-293 cells and subsequently tagged with DNA for qPCR detection. Streptavidin-coated magnetic beads were treated with biotinylated small molecule ligands for 30 minutes at room temperature to generate affinity resins for kinase assays. The liganded beads were blocked with excess biotin and washed with blocking buffer (SeaBlock (Pierce), 1% BSA, 0.05% Tween 20, 1 mM
DTT) to remove unbound ligand and to reduce non-specific phage binding. Binding reactions were assembled by combining kinases, liganded affinity beads, and test compounds in lx binding buffer (20% SeaBlock, 0.17×PBS, 0.05% Tween 20, 6 mM DTT). Test compounds were prepared as 40× stocks in 100% DMSO and directly diluted into the assay. All reactions were performed in polypropylene 384-well plates in a final volume of 0.02 ml. The assay plates were incubated at room temperature with shaking for 1 hour and the affinity beads were washed with wash buffer (1 PBS, 0.05% Tween 20). The beads were then re-suspended in elution buffer (1× PBS, 0.05% Tween 20, 0.5 μM non-biotinylated affinity ligand) and incubated at room temperature with shaking for 30 minutes. The kinase concentration in the eluates was measured by qPCR.

[2] = target: CDK7 (Homo sapiens, UniProt P50613); experiment: Biochemical assay for CDK7 (LANCE TR-FRET, ULight-MBP phosphorylation); details: CDK7 10 nM, ATP 1 mM/100 μM, 60 min pre-incubation
CDK7, sequence (P50613 whole entry, species assumed): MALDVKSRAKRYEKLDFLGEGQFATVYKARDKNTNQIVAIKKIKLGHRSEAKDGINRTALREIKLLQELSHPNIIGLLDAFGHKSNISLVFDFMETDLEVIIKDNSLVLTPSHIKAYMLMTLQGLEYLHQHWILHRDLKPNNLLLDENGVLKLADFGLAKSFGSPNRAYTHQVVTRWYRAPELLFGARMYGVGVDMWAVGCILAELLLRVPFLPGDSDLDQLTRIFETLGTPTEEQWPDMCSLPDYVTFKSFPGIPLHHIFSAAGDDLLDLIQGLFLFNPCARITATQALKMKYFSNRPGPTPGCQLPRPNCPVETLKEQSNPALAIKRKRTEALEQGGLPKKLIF
CDK7, sequence (P51946 whole entry partner, species assumed): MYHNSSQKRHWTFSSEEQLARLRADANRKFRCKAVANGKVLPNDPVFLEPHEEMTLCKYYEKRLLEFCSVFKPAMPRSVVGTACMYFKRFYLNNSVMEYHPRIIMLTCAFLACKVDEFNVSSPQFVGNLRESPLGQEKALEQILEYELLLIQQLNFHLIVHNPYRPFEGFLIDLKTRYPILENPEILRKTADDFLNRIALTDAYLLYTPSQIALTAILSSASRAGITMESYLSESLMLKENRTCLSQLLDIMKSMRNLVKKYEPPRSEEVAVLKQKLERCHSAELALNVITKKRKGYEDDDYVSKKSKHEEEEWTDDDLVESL
CDK7, sequence (P51948 whole entry partner, species assumed): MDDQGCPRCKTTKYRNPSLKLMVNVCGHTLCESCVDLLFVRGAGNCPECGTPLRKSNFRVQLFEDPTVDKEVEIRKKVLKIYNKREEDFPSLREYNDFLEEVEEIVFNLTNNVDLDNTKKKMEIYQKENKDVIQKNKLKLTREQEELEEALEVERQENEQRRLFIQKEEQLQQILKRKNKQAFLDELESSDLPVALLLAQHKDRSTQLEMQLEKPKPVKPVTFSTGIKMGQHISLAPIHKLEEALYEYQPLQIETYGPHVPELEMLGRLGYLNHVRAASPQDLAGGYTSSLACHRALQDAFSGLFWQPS
Method: The inhibitory activity of the test compounds was assessed by the LANCE TR-FRET assay, which detects the ATP-dependent phosphorylation of an ULight-myelin basic protein (MBP) substrate peptide (100 nM) by CDK7 (10 nM). Briefly, the enzyme reaction was run in reaction buffer (20 mM HEPES (pH 7.5), 10 mM MgCl2, 0.01% Triton x, 100 μM Sodium Orthovanadate, 1 mM DTT). The assay was performed in 384-well plate. The end concentration of the ATP substrate was 1 mM/100 μM, and that of the ULight-MBP substrate peptide was 100 nM, and of CDK7 was 10 nM. Pre-incubation of the compound and enzyme was performed for 60 min at room temperature. After 60 min incubation at room temperature, the reaction was terminated by the addition of 40 mM EDTA and 1 nM Eu-labeled anti-phospho-MBP-binding protein antibody in the buffer. Time-resolved fluorescence (excitation, 320 nm; emission donor, 615 nm; emission acceptor, 665 nm) was monitored by using 2030 multilabel reader Victor5 (PerkinElmer). The readout was calculated as (acceptor counts/donor counts)×1000. The IC50 values were derived by fitting a sigmoidal dose-response curve to a plot of assay readout over inhibitor concentration. All fits were computed with the program Prism 5.03 (Graph Pad Software, San Diego, Calif.).

[3] = target: CDK13 (Homo sapiens, UniProt Q14004); experiment: Biochemical assay for CDK13 (LanthaScreen Eu Kinase Binding Assay); details: kinase tracer 236 100 nM, CDK13 5 nM
CDK13, sequence (Q14004 whole entry, species assumed): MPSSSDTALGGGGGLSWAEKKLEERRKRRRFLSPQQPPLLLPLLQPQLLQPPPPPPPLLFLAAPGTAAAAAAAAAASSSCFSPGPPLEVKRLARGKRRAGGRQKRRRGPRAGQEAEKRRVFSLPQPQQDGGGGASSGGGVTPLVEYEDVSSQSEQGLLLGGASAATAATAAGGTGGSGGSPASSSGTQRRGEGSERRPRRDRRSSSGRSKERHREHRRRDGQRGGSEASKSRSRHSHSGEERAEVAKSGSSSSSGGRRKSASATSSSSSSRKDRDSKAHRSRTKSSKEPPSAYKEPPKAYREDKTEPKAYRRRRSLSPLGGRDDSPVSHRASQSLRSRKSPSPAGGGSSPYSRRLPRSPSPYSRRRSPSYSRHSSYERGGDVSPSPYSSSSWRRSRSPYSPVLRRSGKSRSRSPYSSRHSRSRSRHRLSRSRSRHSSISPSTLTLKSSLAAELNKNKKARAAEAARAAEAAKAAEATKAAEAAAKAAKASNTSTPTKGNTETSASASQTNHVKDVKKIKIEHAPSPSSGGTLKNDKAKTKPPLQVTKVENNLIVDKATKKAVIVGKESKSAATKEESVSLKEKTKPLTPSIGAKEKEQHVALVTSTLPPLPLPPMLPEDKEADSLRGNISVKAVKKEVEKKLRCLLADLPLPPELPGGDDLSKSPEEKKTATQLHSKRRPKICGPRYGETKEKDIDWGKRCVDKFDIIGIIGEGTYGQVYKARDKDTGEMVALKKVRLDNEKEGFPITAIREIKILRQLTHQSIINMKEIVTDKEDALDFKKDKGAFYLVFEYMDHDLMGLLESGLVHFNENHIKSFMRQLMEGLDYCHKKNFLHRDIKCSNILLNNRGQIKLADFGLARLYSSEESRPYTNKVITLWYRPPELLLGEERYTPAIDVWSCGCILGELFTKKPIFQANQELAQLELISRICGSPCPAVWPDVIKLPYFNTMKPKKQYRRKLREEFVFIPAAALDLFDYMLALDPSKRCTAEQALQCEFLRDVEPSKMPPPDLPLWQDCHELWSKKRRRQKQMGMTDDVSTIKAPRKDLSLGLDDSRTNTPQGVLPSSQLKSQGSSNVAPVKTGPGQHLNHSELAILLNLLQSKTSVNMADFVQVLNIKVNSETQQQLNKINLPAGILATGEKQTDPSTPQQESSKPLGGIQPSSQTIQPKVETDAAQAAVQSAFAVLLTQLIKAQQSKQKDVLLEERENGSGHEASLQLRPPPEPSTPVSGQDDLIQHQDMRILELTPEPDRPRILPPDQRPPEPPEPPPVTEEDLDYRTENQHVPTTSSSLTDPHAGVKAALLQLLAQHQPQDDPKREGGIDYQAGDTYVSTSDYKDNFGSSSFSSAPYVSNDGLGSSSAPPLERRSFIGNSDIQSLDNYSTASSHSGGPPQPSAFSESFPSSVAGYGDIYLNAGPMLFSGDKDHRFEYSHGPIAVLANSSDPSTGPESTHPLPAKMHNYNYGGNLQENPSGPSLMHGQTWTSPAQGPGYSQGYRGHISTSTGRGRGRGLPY
CDK13, sequence (O75909 whole entry partner, species assumed): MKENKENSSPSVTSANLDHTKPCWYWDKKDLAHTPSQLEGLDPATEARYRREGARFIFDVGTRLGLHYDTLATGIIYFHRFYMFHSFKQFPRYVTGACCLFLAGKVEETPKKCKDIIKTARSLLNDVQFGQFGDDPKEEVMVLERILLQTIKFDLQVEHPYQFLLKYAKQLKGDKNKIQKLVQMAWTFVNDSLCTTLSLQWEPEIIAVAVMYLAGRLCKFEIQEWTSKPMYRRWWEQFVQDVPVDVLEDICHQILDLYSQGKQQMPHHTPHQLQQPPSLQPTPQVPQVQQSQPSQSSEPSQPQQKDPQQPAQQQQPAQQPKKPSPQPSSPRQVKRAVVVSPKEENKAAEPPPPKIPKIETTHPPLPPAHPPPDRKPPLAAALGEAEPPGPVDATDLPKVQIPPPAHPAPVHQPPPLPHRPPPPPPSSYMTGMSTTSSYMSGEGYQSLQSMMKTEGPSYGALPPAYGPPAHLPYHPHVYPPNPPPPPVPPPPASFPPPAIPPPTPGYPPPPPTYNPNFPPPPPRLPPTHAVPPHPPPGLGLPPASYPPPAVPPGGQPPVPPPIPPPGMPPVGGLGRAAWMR
Method: LanthaScreen Eu Kinase Binding Assays are based on the binding and displacement of Alexa Fluor 647-labeled, ATP-competitive kinase inhibitor scaffold (kinase tracer) to the kinase of interest. Binding of the kinase tracer 236 (100 nM) to the CDK13 (5 nM) kinase is detected using a europium-labelled anti- GST tag antibody (2 nM), which binds to the kinase. Simultaneous binding of the tracer and antibody to the kinase results in a high degree of FRET (fluorescence resonance energy transfer) from the europium (Eu) donor fluorophore to the Alexa Fluor™ 647 acceptor fluorophore on the kinase tracer. Binding of an inhibitor to the kinase competes for binding with the tracer, resulting in a loss of FRET signal.

CDK12, sequence (Q9NYV4 whole entry, species assumed): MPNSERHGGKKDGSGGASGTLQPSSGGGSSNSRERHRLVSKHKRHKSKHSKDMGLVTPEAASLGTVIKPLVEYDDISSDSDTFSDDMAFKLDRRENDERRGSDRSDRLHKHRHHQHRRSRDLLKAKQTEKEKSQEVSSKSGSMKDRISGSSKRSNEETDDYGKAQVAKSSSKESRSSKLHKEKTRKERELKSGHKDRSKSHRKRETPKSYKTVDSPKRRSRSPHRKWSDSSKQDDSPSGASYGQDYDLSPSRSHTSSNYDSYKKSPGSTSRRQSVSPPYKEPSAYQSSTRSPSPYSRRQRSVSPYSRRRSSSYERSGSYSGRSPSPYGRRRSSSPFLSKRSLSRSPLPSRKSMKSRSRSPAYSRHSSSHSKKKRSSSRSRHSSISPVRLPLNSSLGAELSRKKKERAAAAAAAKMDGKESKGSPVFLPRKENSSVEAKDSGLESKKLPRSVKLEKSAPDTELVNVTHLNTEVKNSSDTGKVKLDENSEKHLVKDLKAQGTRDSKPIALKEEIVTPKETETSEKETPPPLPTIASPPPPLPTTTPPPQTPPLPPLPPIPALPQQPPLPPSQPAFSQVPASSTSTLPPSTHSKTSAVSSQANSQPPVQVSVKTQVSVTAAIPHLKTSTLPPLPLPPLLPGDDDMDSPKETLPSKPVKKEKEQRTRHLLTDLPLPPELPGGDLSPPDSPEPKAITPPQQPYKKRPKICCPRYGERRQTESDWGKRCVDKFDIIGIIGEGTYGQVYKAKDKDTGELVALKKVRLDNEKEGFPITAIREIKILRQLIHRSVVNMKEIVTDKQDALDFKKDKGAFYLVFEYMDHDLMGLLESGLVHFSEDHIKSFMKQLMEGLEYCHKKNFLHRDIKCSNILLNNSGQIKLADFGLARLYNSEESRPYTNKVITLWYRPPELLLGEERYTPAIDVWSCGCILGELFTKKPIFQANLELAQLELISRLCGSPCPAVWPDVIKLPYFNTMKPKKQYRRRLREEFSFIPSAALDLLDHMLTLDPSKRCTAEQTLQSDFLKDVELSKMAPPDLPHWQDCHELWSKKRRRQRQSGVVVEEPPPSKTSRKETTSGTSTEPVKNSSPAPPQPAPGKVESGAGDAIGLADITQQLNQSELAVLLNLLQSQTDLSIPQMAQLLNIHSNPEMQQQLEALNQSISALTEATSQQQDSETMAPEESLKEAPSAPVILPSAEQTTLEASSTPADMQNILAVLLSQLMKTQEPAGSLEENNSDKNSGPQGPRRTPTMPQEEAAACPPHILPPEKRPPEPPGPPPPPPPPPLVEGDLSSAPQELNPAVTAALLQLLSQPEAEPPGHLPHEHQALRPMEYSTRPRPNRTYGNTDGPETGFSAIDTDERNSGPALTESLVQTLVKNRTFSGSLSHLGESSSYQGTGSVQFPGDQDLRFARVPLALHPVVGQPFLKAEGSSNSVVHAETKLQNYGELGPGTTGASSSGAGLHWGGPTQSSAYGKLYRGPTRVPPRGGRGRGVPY

| SMILES | pKd [1] | pIC50 [2] | pIC50 [3] |
| --- | --- | --- | --- |
| C=CC(=O)NCc1ccc(-c2ccc(C(C)C(=O)Nc3cc(C4CC4)[nH]n3)cc2)cc1 (racemic) [Compound 9, N-((4′-(1-((5-cyclopropyl-1H-pyrazol-3-yl)amino)-1-oxopropan-2-yl)-[1,1′-biphenyl]-4-yl)methyl)acrylamide] | < 6.30 | 5.26 | 7.77 |
| C=CC(=O)Nc1ccc(-c2ccc(C(C)C(=O)Nc3cc(C4CC4)[nH]n3)cc2)cc1 (single isomer, unassigned) [Compound 3, N-(4′-(1-((5-cyclopropyl-1H-pyrazol-3-yl)amino)-1-oxopropan-2-yl)-[1,1′-biphenyl]-4-yl)acrylamide] |  | 5.72 | 7.74 |
| CC(C(=O)Nc1cc(C2CC2)[nH]n1)c1ccc(-c2ccc(CNC(=O)/C=C/CN3CCOCC3)nc2)cc1 (single isomer, unassigned) [Compound 13, (E)-N-((5-(4-(1-((5-cyclopropyl-1H-pyrazol-3-yl)amino)-1-oxopropan-2-yl)phenyl)pyridin-2-yl)methyl)-4-morpholinobut-2-enamide] | < 6.30 | < 5.00 | 5.69 |
| C=CC(=O)NCc1ccc(C(C)C(=O)Nc2cc(C3CC3)[nH]n2)cn1 (stereo not shown) [Compound 26, N-((5-(1-((5-cyclopropyl-1H-pyrazol-3-yl)amino)-1-oxopropan-2-yl)pyridin-2-yl)methyl)acrylamide] | 6.30 to 7.30 |  | 6.48 |
| CC(C(=O)Nc1cc(C2CC2)[nH]n1)c1ccc(-c2ccc(CNC(=O)/C=C/CN3CCOCC3)cc2)cc1 (stereo not shown) [Compound 15, (E)-N-((4′-(1-((5-cyclopropyl-1H-pyrazol-3-yl)amino)-1-oxopropan-2-yl)-[1,1′-biphenyl]-4-yl)methyl)-4-morpholinobut-2-enamide] | > 7.30 | 5.44 | 6.59 |
| CC(C(=O)Nc1cc(C2CC2)[nH]n1)c1ccc(-c2ccc(CNC(=O)/C=C/CN3CCOCC3)cc2)cc1 (single isomer, unassigned) [Compound 16, (E)-N-((4′-(1-((5-cyclopropyl-1H-pyrazol-3-yl)amino)-1-oxopropan-2-yl)-[1,1′-biphenyl]-4-yl)methyl)-4-morpholinobut-2-enamide] | < 6.30 | < 5.00 | 6.67 |
| CC(C(=O)Nc1cc(C2CC2)[nH]n1)c1ccc(-c2ccc(NC(=O)/C=C/CN3CCOCC3)cc2)cc1 (stereo not shown) [Compound 12, (E)-N-(4′-(1-((5-cyclopropyl-1H-pyrazol-3-yl)amino)-1-oxopropan-2-yl)-[1,1′-biphenyl]-4-yl)-4-morpholinobut-2-enamide] | > 7.30 |  | 7.22 |
| CC(C(=O)Nc1cc(C2CC2)[nH]n1)c1ccc(-c2ccc(NC(=O)/C=C/CN3CCOCC3)nc2)cc1 (single isomer, unassigned) [Compound 7, (E)-N-(5-(4-(1-((5-cyclopropyl-1H-pyrazol-3-yl)amino)-1-oxopropan-2-yl)phenyl)pyridin-2-yl)-4-morpholinobut-2-enamide] | > 7.30 | 5.99 | 8.30 |
| C=CC(=O)NCc1ccc(-c2ccc(C(C)C(=O)Nc3cc(C4CC4)[nH]n3)cc2)cc1 (single isomer, unassigned) [Compound 10, N-((4′-(1-((5-cyclopropyl-1H-pyrazol-3-yl)amino)-1-oxopropan-2-yl)-[1,1′-biphenyl]-4-yl)methyl)acrylamide] | < 6.30 | < 5.00 | 6.09 |
| CC(C(=O)Nc1cc(C2CC2)[nH]n1)c1ccc(-c2ccc(NC(=O)/C=C/CN3CCOCC3)nc2)cc1 (stereo not shown) [Compound 5, (E)-N-(5-(4-(1-((5-cyclopropyl-1H-pyrazol-3-yl)amino)-1-oxopropan-2-yl)phenyl)pyridin-2-yl)-4-morpholinobut-2-enamide] |  | 5.77 | 7.62 |
| C=CC(=O)NCc1ccc(C(C)C(=O)Nc2cc(C3CC3)[nH]n2)cc1 (racemic) [Compound 23, N-(4-(1-((5-cyclopropyl-1H-pyrazol-3-yl)amino)-1-oxopropan-2-yl)benzyl)acrylamide] | 6.30 to 7.30 | < 5.00 | 6.55 |
| C=CC(=O)NCc1ccc(-c2ccc(C(C)C(=O)Nc3cc(C4CC4)[nH]n3)cc2)cc1 (single isomer, unassigned) [Compound 11, N-((4′-(1-((5-cyclopropyl-1H-pyrazol-3-yl)amino)-1-oxopropan-2-yl)-[1,1′-biphenyl]-4-yl)methyl)acrylamide] |  | 5.67 | 7.02 |

Second part, the compound after the results:

| pKd [1] | pIC50 [2] | pIC50 [3] | SMILES |
| --- | --- | --- | --- |
| > 7.30 | 5.88 | 7.06 | C=CC(=O)NCc1ncc(-c2ccc([C@H](C)C(=O)Nc3cc(C4CC4)[nH]n3)cc2)cc1F [Compound 21, (S)-N-((5-(4-(1-((5-cyclopropyl-1H-pyrazol-3-yl)amino)-1-oxopropan-2-yl)phenyl)-3-fluoropyridin-2-yl)methyl)acrylamide] |
| < 6.30 |  |  | C=CC(=O)NCc1ccc(C(C)C(=O)Nc2cc(C3CC3)[nH]n2)cc1 (single isomer, unassigned) [Compound 25, N-(4-(1-((5-cyclopropyl-1H-pyrazol-3-yl)amino)-1-oxopropan-2-yl)benzyl)acrylamide] |
| > 7.30 | 5.54 | 7.44 | C=CC(=O)NC(C)c1ccc(-c2ccc([C@H](C)C(=O)Nc3cc(C4CC4)[nH]n3)cc2)cn1 (stereo partly drawn) [Compound 20, N-(1-(5-(4-((S)-1-((5-cyclopropyl-1H-pyrazol-3-yl)amino)-1-oxopropan-2-yl)phenyl)pyridin-2-yl)ethyl)acrylamide] |
| 6.30 to 7.30 | < 5.00 | 6.30 | CC(C(=O)Nc1cc(C2CC2)[nH]n1)c1ccc(-c2ccc(NC(=O)/C=C/CN3CCOCC3)nc2)cc1 (single isomer, unassigned) [Compound 6, (E)-N-(5-(4-(1-((5-cyclopropyl-1H-pyrazol-3-yl)amino)-1-oxopropan-2-yl)phenyl)pyridin-2-yl)-4-morpholinobut-2-enamide] |
| 6.30 to 7.30 |  | 6.63 | C=CC(=O)NCc1ccc(C(C)C(=O)Nc2cc(C3CC3)[nH]n2)cc1 (single isomer, unassigned) [Compound 24, N-(4-(1-((5-cyclopropyl-1H-pyrazol-3-yl)amino)-1-oxopropan-2-yl)benzyl)acrylamide] |
| > 7.30 | 5.81 | 7.27 | CC(C(=O)Nc1cc(C2CC2)[nH]n1)c1ccc(-c2ccc(CNC(=O)/C=C/CN3CCOCC3)cc2)cc1 (single isomer, unassigned) [Compound 17, (E)-N-((4′-(1-((5-cyclopropyl-1H-pyrazol-3-yl)amino)-1-oxopropan-2-yl)-[1,1′-biphenyl]-4-yl)methyl)-4-morpholinobut-2-enamide] |
|  |  | 8.40 | C=CC(=O)NCc1ccc(-c2ccc(C(C)C(=O)Nc3cc(C4CC4)[nH]n3)cn2)cn1 (stereo not shown) [Compound 4, N-((5-(1-((5-cyclopropyl-1H-pyrazol-3-yl)amino)-1-oxopropan-2-yl)[2,3′-bipyridin]-6′-yl)methyl)acrylamide] |
| > 7.30 | 5.28 | 7.68 | C=CC(=O)NCc1ccc(-c2ccc(C(C)C(=O)Nc3cc(C4CC4)[nH]n3)cc2)nc1 (stereo not shown) [Compound 22, N-((6-(4-(1-((5-cyclopropyl-1H-pyrazol-3-yl)amino)-1-oxopropan-2-yl)phenyl)pyridin-3-yl)methyl)acrylamide] |
| > 7.30 |  | 7.89 | C=CC(=O)NC(CC)c1ccc(-c2ccc([C@H](C)C(=O)Nc3cc(C4CC4)[nH]n3)cc2)cn1 (stereo partly drawn) [Compound 19, N-(1-(5-(4-((S)-1-((5-cyclopropyl-1H-pyrazol-3-yl)amino)-1-oxopropan-2-yl)phenyl)pyridin-2-yl)propyl)acrylamide] |
